In ChEMBL document CHEMBL2346628, “Real-time analysis of membrane permeabilizing effects of oleanane saponins” (Bioorg Med Chem, 2013):
Activity calls are given as the source filed them. No cut-off for these calls is given here.

Assays:
[1] = Hemolytic activity against human RBC at 12 uM after 30 mins relative to control; type: ADME, cell-based, Erythrocyte
[2] = Hemolytic activity against human RBC at 6 uM after 30 mins relative to control; type: ADME, cell-based, Erythrocyte; conditions: red blood cells (RBC), read-out: Activity
ECV-304 [3] = assay: Membrane permeabilization effect on lysosome of human ECV304 cells assessed as induction of membrane lysis at 24 to 48 uM after 1 hr by N-Acetylglucosaminidase release assay; type: functional, cell-based
ECV-304 [4] = assay: Membrane permeabilization effect on lysosome of human ECV304 cells assessed as induction of membrane lysis up to 6 uM after 1 hr by N-Acetylglucosaminidase release assay; type: functional, cell-based
ECV-304 [5] = assay: Membrane permeabilization effect on human ECV304 cells assessed as increase in propidium iodide uptake at 12 uM after 1 hr by FACS flow cytometric analysis; type: functional, cell-based
ECV-304 [6] = assay: Membrane permeabilization effect on human ECV304 cells assessed as induction of membrane lysis at 48 uM after 1 hr; type: functional, cell-based
ECV-304 [7] = assay: Membrane permeabilization effect on human ECV304 cells assessed as normalized cell index at 12 to 24 uM measured every 15 secs for 3 hrs by real time impedance-based plate reader analysis relative to control relative to control; type: functional
ECV-304 [8] = assay: Membrane permeabilization effect on human ECV304 cells assessed as normalized cell index at 6 uM measured every 15 secs for 3 hrs by real time impedance-based plate reader analysis relative to control; type: functional
ECV-304 [9] = assay: Membrane permeabilization effect on human ECV304 cells at 3 uM measured every 15 secs for 3 hrs by real time impedance-based plate reader analysis; type: functional, cell-based
[10] = Hemolytic activity against human RBC at 48 uM after 30 mins; type: ADME, cell-based; conditions: erythrocyte, 0.5 h
[11] = Hemolytic activity against human RBC at 24 uM after 30 mins relative to control; type: ADME, cell-based, Erythrocyte
[12] = Hemolytic activity against human RBC up to 12 uM after 30 mins; type: ADME, cell-based; conditions: erythrocyte, 0.5 h
ECV-304 [13] = assay: Membrane permeabilization effect on lysosome of human ECV304 cells assessed as induction of membrane lysis at 48 uM after 1 hr by N-Acetylglucosaminidase release assay; type: functional, cell-based
ECV-304 [14] = assay: Membrane permeabilization effect on human ECV304 cells assessed as increase in propidium iodide uptake at 24 to 48 uM after 1 hr by FACS flow cytometric analysis; type: functional, cell-based
ECV-304 [15] = assay: Membrane permeabilization effect on human ECV304 cells at 12 to 24 uM measured every 15 secs for 3 hrs by real time impedance-based plate reader analysis; type: functional, cell-based
ECV-304 [16] = assay: Membrane permeabilization effect on human ECV304 cells at 6 uM measured every 15 secs for 3 hrs by real time impedance-based plate reader analysis; type: functional, cell-based
ECV-304 [17] = assay: Cytotoxicity against human ECV304 cells at 24 uM after 3 hrs; type: cell-based; conditions: ecv-304, 3 h
ECV-304 [18] = assay: Membrane permeabilization effect on human ECV304 cells assessed as normalized cell index at 24 uM measured every 15 secs for 3 hrs by real time impedance-based plate reader analysis relative to control; type: functional
ECV-304 [19] = assay: Membrane permeabilization effect on human ECV304 cells assessed as increase in propidium iodide uptake at 24 uM after 1 hr by FACS flow cytometric analysis; type: functional, cell-based
ECV-304 [20] = assay: Membrane permeabilization effect on human ECV304 cells up to 12 uM measured every 15 secs for 3 hrs by real time impedance-based plate reader analysis; type: functional, cell-based
[21] = red blood cells (RBC), read-out: Activity

## CC(=O)O[C@H]1[C@H](O[C@@H]2OC[C@@H](O)[C@H](O)[C@H]2O)[C@@H](O)[C@H](O[C@@H]2[C@H](O)[C@@H](O[C@@H]3O[C@@H](C)[C@H](O[C@@H]4OC[C@@H](O)[C@H](O[C@@H]5OC[C@@H](O)[C@H](O)[C@H]5O)[C@H]4O)[C@@H](O)[C@H]3O)[C@H](OC(=O)[C@]34CCC(C)(C)C[C@H]3C3=CC[C@@H]5[C@@]6(C)CC[C@H](O[C@H]7O[C@H](C(=O)O)[C@@H](O)[C@H](O[C@@H]8OC[C@@H](O)[C@H](O)[C@H]8O)[C@H]7O[C@@H]7O[C@H](CO)[C@H](O)[C@H](O)[C@H]7O)[C@@](C)(C=O)[C@@H]6CC[C@@]5(C)[C@]3(C)C[C@H]4O)O[C@@H]2C)O[C@@H]1C
[1]; erythrocyte, 0.5 h, 12 µM
  Activity: Toxic
[2]
  hemolysis at 0.5 h, 6 µM: 61%
ECV-304 [3]
  Activity: Active
ECV-304 [4]
  Activity: inactive
ECV-304 [5]
  Activity: Active
ECV-304 [6]
  Activity: Active
ECV-304 [7]
  fold change (FC): 0
ECV-304 [8]
  fold change (FC): 0.6
ECV-304 [9]
  Activity: inactive

## C[C@@H]1O[C@@H](O[C@H]2[C@H](OC(=O)[C@]34CCC(C)(C)C[C@H]3C3=CC[C@@H]5[C@@]6(C)CC[C@H](O[C@H]7O[C@H](C(=O)O)[C@@H](O)[C@H](O[C@@H]8OC[C@@H](O)[C@H](O)[C@H]8O)[C@H]7O[C@@H]7O[C@H](CO)[C@H](O)[C@H](O)[C@H]7O)[C@@](C)(C=O)[C@@H]6CC[C@@]5(C)[C@]3(C)CC4)O[C@H](C)[C@H](O[C@@H]3O[C@H](C)[C@@H](O)[C@H](O)[C@H]3O)[C@@H]2O)[C@H](O)[C@H](O)[C@H]1O[C@@H]1OC[C@@H](O)[C@H](O[C@@H]2OC[C@@H](O)[C@H](O)[C@H]2O)[C@H]1O
[10]
  Activity: Toxic
[11]; [21]
  hemolysis at 0.5 h, 24 µM: 30%
[12]
  Activity: Non-toxic
ECV-304 [4]
  Activity: inactive
ECV-304 [13]
  Activity: inactive
ECV-304 [14]
  Activity: Active
ECV-304 [15]
  Activity: inactive
ECV-304 [16]
  Activity: Active

## CCC(C)C(CC(O)CC(=O)O[C@H]1[C@@H](O)[C@@H](C)O[C@@H](OC(=O)[C@]23CCC(C)(C)C[C@H]2C2=CC[C@@H]4[C@@]5(C)CC[C@H](O[C@H]6O[C@H](C(=O)O)[C@@H](O)[C@H](O[C@@H]7OC[C@@H](O)[C@H](O)[C@H]7O)[C@H]6O[C@@H]6O[C@H](CO)[C@H](O)[C@H](O)[C@H]6O)[C@@](C)(C=O)[C@@H]5CC[C@@]4(C)[C@]2(C)C[C@H]3O)[C@@H]1O[C@@H]1O[C@@H](C)[C@H](O[C@@H]2OC[C@@H](O)[C@H](O[C@@H]3OCC(O)(O)[C@H]3O)[C@H]2O)[C@@H](O[C@@H]2O[C@H](CO)[C@@H](O)[C@H](O)[C@H]2O)[C@H]1O)OC(=O)CC(O)CC(O[C@@H]1O[C@@H](CO)[C@H](O)[C@H]1O[C@@H]1O[C@@H](C)[C@H](O)[C@@H](O)[C@H]1O)C(C)CC (stereo in doubt; form 1) [listing 1 of 2 here]
[11]; erythrocyte, 0.5 h, 24 µM
  Activity: Toxic
[1]; [21]
  hemolysis at 0.5 h, 12 µM: 67%
[2]
  hemolysis at 0.5 h, 6 µM: 27%
ECV-304 [17]
  Activity: Toxic
ECV-304 [18]
  fold change (FC): 0.1

## CCC(C)C(CC(O)CC(=O)O[C@H]1[C@@H](O)[C@@H](C)O[C@@H](OC(=O)[C@]23CCC(C)(C)C[C@H]2C2=CC[C@@H]4[C@@]5(C)CC[C@H](O[C@H]6O[C@H](C(=O)O)[C@@H](O)[C@H](O[C@@H]7OC[C@@H](O)[C@H](O)[C@H]7O)[C@H]6O[C@@H]6O[C@H](CO)[C@H](O)[C@H](O)[C@H]6O)[C@@](C)(C=O)[C@@H]5CC[C@@]4(C)[C@]2(C)C[C@H]3O)[C@@H]1O[C@@H]1O[C@@H](C)[C@H](O[C@@H]2OC[C@@H](O)[C@H](O[C@@H]3OCC(O)(O)[C@H]3O)[C@H]2O)[C@@H](O[C@@H]2O[C@H](CO)[C@@H](O)[C@H](O)[C@H]2O)[C@H]1O)OC(=O)CC(O)CC(O[C@@H]1O[C@@H](CO)[C@H](O)[C@H]1O[C@@H]1O[C@@H](C)[C@H](O)[C@@H](O)[C@H]1O)C(C)CC (stereo in doubt; form 1) [listing 2 of 2 here]
ECV-304 [4]
  Activity: inactive
ECV-304 [6]
  Activity: Active
ECV-304 [19]
  Activity: Active
ECV-304 [20]
  Activity: inactive
